In US20090131313A1, “LKKTET AND/OR LKKTNT PEPTIDE COMPOSITIONS AND METHODS FOR TREATING OR PREVENTING TISSUE DETERIORATION, INJURY OR DAMAGE” (REGENERX BIOPHARMACEUTICALS, INC., priority 2005, published 2009):

Legend:
[1] = test system: Human corneal epithelial cells; test: BrdU incorporation cell proliferation assay; assay type: cell-based; details: 1 mcg/ml Tβ4, 3 and 24 hour time points
Experimental: (§1) Human corneal epithelial cells at approximately 80% confluence were treated with 0%, 0.001%, 0.01%, or 0.1% BAK for 15 minutes. After 3 and 24 hours of recovery in culture medium, cell proliferation was measured using a calorimetric BrdU incorporation assay. Apoptosis was measured using a calorimetric annexin-based cell death assay. […] To further assess the ability of Tb4 to prevent apoptosis, corneal epithelial cells were treated with 0.01% BAK±Tβ4 over a 5 day time course.

[2] = test system: Human corneal epithelial cells; test: annexin-based cell death (apoptosis) assay
Experimental: as §1

| Substance | cell proliferation of BAK-treated cells in the presence of Tβ4 [1] | apoptosis of BAK-treated cells in the presence of Tβ4 ([2]; 1 mcg/ml Tβ4, BAK-treated cells, 3 and 24 hour time points) | apoptosis compared to cells cultured in medium alone ([2]; Tβ4-treated cells, 5 days in culture) | corneal epithelial cell apoptosis compared to control ([2]; 0.001%, 0.01% or 0.1% BAK for 15 minutes, 3 and 24 hours recovery) |
| --- | --- | --- | --- | --- |
| Thymosin beta 4 (SDKPDMAEIEKFDKSKLKKTETQEKNPLPSKETIEQEKQAGES; Thymosin beta-4; UniProt P62328 2-44, looked up) [Tβ4] | not promoted | not inhibited | decreased apoptosis |  |
| benzalkonium chloride [BAK, reference compound] |  |  |  | increased |
